Values quoted from earlier work in patent publication US20080318986A1, “Ddc Compositions” (priority 2005, published 2008).

Tested on: adenoviral strains
Conditions: literature study; for inhibition of adenoviral strains: Kaneko et al. J. Jpn. Opthalmol. Soc. 107:196-201 (2003)

Row | Structure (SMILES) | inhibition of adenoviral strains | EC50 values against adenoviral strains (rank among NMSO3, HPMPC, dDC) (Kaneko et al. 2003, comparison in words only)
1 | Nc1ccn(C[C@@H](CO)OCP(=O)(O)O)c(=O)n1 [HPMPC] | inhibited adenoviral strains | 
2 | CCCCCCCCCCCCCCCCCCCCCCOCC(C)(COCCCCCCCCCCCCCCCCCCCCCC)CO[C@]1(C(=O)O)C[C@H](OS(=O)(=O)O)[C@@H](NC(C)=O)[C@H]([C@H](OS(=O)(=O)O)[C@@H](COS(=O)(=O)O)OS(=O)(=O)O)O1 [NMSO3] | inhibited adenoviral strains | lowest EC50 values
3 | Nc1ccn([C@H]2CC[C@@H](CO)O2)c(=O)n1 [dDC, 2′,3′-Dideoxycytidine] | inhibited adenoviral strains | 
